In ChEMBL document CHEMBL1201862, “PubChem BioAssay data set” (2004):
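These data come from cells grown in 96-well plates and exposed to compound for 48 hours at five concentrations. GI50 = concentration required for 50% inhibition of growth.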 The source made the active and inactive calls. Cut-off read from the data, not from the text of the source: active = GI50 up to about 1.1 µM and inactive = higher.

Assays:
Assay in all cases: NCI-60 cell line screen, 48 h
[1] = tested on: 786-0
[2] = tested on: A498
[3] = tested on: A549
[4] = tested on: ACHN
[5] = tested on: BT-549
[6] = tested on: CAKI-1
[7] = tested on: CCRF-CEM
[8] = tested on: COLO 205
[9] = tested on: DU-145
[10] = tested on: EKVX
[11] = tested on: HCC 2998
[12] = tested on: HCT-116
[13] = tested on: HCT-15
[14] = tested on: HL-60
[15] = tested on: HOP-62
[16] = tested on: HOP-92
[17] = tested on: HT-29
[18] = tested on: Hs-578T
[19] = tested on: K562
[20] = tested on: KM12
[21] = tested on: LOX IMVI
[22] = tested on: M14
[23] = tested on: MCF7
[24] = tested on: MDA-MB-231
[25] = tested on: MDA-MB-435
[26] = tested on: MDA-N
[27] = tested on: MOLT-4
[28] = tested on: Malme-3M
[29] = tested on: NCI-H226
[30] = tested on: NCI-H23
[31] = tested on: NCI-H460
[32] = tested on: NCI-H522
[33] = tested on: NCI/ADR-RES
[34] = tested on: OVCAR-3
[35] = tested on: OVCAR-4
[36] = tested on: OVCAR-5
[37] = tested on: OVCAR-8
[38] = tested on: PC-3
[39] = tested on: RPMI-8226
[40] = tested on: RXF 393
[41] = tested on: SF-268
[42] = tested on: SF-295
[43] = tested on: SF-539
[44] = tested on: SK-MEL-28
[45] = tested on: SK-MEL-2
[46] = tested on: SK-MEL-5
[47] = tested on: SK-OV-3
[48] = tested on: SNB-19
[49] = tested on: SNB-75
[50] = tested on: SR
[51] = tested on: SW-620
[52] = tested on: T47D
[53] = tested on: TK-10
[54] = tested on: U-251
[55] = tested on: UACC-257
[56] = tested on: UACC-62
[57] = tested on: UO-31

## CCOc1cc2c(cc1OC(C)=O)C(=O)CC[C@H]1C3CC[C@H](OC(C)=O)[C@@]3(C)CC[C@H]21 (some centres not stated)
[1]
  GI50: > 100 µM (inactive)
[2]
  GI50: > 100 µM (inactive)
[3]
  GI50: > 100 µM (inactive)
[4]
  GI50: > 100 µM (inactive)
[5]
  GI50: > 100 µM (inactive)
[6]
  GI50: > 100 µM (inactive)
[7]
  GI50: > 100 µM (inactive)
[8]
  GI50: > 100 µM (inactive)
[9]
  GI50: > 100 µM (inactive)
[10]
  GI50: > 100 µM (inactive)
[11]
  GI50: > 100 µM (inactive)
[12]
  GI50: > 100 µM (inactive)
[13]
  GI50: > 100 µM
[14]
  GI50: > 100 µM (inactive)
[15]
  GI50: > 100 µM (inactive)
[16]
  GI50: > 100 µM (inactive)
[17]
  GI50: > 100 µM (inactive)
[18]
  GI50: > 100 µM (inactive)
[19]
  GI50: > 100 µM (inactive)
[20]
  GI50: > 100 µM (inactive)
[21]
  GI50: > 100 µM (inactive)
[22]
  GI50: > 100 µM (inactive)
[23]
  GI50: > 100 µM (inactive)
[24]
  GI50: > 100 µM (inactive)
[25]
  GI50: > 100 µM (inactive)
[26]
  GI50: > 100 µM (inactive)
[27]
  GI50: > 100 µM (inactive)
[28]
  GI50: > 100 µM (inactive)
[29]
  GI50: > 100 µM (inactive)
[30]
  GI50: > 100 µM (inactive)
[31]
  GI50: > 100 µM (inactive)
[32]
  GI50: > 100 µM (inactive)
[33]
  GI50: > 100 µM (inactive)
[34]
  GI50: > 100 µM (inactive)
[35]
  GI50: > 100 µM (inactive)
[36]
  GI50: > 100 µM (inactive)
[37]
  GI50: > 100 µM (inactive)
[38]
  GI50: > 100 µM (inactive)
[39]
  GI50: > 100 µM (inactive)
[40]
  GI50: > 100 µM (inactive)
[41]
  GI50: > 100 µM (inactive)
[42]
  GI50: > 100 µM (inactive)
[43]
  GI50: > 100 µM (inactive)
[44]
  GI50: > 100 µM (inactive)
[45]
  GI50: > 100 µM (inactive)
[46]
  GI50: > 100 µM (inactive)
[47]
  GI50: > 100 µM (inactive)
[48]
  GI50: > 100 µM (inactive)
[49]
  GI50: > 100 µM (inactive)
[50]
  GI50: > 100 µM (inactive)
[51]
  GI50: > 100 µM (inactive)
[52]
  GI50: > 100 µM (inactive)
[53]
  GI50: > 100 µM (inactive)
[54]
  GI50: > 100 µM (inactive)
[55]
  GI50: > 100 µM (inactive)
[56]
  GI50: > 100 µM (inactive)
[57]
  GI50: > 100 µM (inactive)
